Laboratory results published in patent US20140066498A1, “TRITERPENOID DERIVATIVES, BENZENOID DERIVATIVES, AND PHARMACEUTICAL COMPOSITIONS CONTAINING THE SAME” (National Cheng Kung University, priority 2010, published 2014).
Values after ≈ are worked out from the molar mass of the structure shown.

How the values were obtained:
KB (human cancer cell) = assay: Cytotoxicity assay against KB cells in vitro; assay type: cell-based; details: NA@20 given for inactive
[1] = target: T1, nitric oxide synthase (NOS) (Mus musculus, UniProt P29477); assay: NOS activity: LPS-induced NO production in murine microglial cells (BV2); details: read-out: IC50 (μM) in NOS; LPS-induced NO production in BV2 cells, 1-50 μM test drug; mean ± S.E.M.
T1 sequence (P29477 1-1144): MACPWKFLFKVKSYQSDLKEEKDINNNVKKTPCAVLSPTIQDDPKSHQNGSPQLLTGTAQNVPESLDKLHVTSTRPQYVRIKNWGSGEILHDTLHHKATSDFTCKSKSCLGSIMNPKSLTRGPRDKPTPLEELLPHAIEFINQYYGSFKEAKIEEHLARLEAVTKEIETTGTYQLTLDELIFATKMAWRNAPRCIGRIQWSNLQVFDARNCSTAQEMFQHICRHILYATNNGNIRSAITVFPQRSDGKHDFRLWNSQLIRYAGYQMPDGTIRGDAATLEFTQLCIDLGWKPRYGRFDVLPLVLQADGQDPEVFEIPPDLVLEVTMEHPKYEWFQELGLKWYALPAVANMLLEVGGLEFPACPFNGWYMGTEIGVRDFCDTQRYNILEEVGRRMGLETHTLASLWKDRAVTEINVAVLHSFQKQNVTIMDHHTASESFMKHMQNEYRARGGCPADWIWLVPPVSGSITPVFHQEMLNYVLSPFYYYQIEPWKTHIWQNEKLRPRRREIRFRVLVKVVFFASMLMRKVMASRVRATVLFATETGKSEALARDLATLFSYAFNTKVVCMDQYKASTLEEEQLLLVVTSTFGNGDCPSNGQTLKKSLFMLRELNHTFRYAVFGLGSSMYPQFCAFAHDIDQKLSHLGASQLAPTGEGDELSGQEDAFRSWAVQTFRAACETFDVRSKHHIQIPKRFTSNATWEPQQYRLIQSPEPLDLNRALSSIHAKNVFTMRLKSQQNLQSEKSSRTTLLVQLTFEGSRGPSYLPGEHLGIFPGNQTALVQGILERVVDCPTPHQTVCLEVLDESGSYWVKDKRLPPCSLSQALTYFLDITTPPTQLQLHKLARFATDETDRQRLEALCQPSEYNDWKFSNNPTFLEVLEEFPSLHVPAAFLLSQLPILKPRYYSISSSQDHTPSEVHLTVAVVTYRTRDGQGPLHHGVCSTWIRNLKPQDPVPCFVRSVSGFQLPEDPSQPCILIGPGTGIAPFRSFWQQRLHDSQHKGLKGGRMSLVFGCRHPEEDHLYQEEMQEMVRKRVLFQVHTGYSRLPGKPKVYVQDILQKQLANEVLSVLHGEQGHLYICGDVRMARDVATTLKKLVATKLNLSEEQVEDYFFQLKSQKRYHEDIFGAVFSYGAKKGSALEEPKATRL
Experimental: Microglial cell culture and measurements of mitric oxide (NO). The murine microglial cell line (BV2) was cultured, and the production of NO was measured by the methods as previously described (Wang, Y. H.; Wang, W. Y.; Chang, C. C.; Liou, K. T.; Sung, Y. J.; Liao, J. F.; Chen, C. F.; Chang, S.; Hou, Y. C.; Chou, Y. C.; Shen, Y. C. J. Biomed. Sci. 2006, 13, 127-141).

NADPH oxidase (NOX) [2] = target: NADPH oxidase (NOX) (Homo sapiens, UniProt P04839); assay type: cell-based; details: ROS production triggered with fMLP (2 μM), 1-50 μM test drug, peripheral human neutrophils; mean ± S.E.M.; read-out: IC50 (μM) in NOX fMLP-induced NOX activation in PMN
NADPH oxidase (NOX) [3] = target: NADPH oxidase (NOX) (Mus musculus, UniProt Q61093); assay type: biochemical, murine; details: ROS production triggered with NADPH (200 μM), 1-50 μM test drug, BV2 cell lysate; mean ± S.E.M., 3-6 experiments; read-out: IC50 (μM) in NOX activity from BV2 cell lysate
[4] = test system: KB-VIN (multidrug-resistant strain); assay: Cytotoxicity assay against KB-VIN cells in vitro; assay type: cell-based, human
[5] = test system: Daoy (human medulloblastoma); assay: MTT cytotoxicity assay, Daoy; assay type: cell-based; details: Daoy cell line
Experimental: (§1) Compounds II-7-II-9, II-13, II-14, II-20, II-21, II-25-II-33, and II-36 were assayed for cytotoxic activity against Doay (human medulloblastoma), Hep2 (human laryngeal carcinoma), MCF-7 (human breast adenocarcinoma), and Hela (human cervical epitheloid carcinoma) cell lines, using a MTT assay method.

[6] = test system: Hep2 (human laryngeal carcinoma); assay: MTT cytotoxicity assay, Hep2; assay type: cell-based; details: Hep2 cell line
Experimental: as §1

[7] = test system: MCF-7 (human breast adenocarcinoma); assay: MTT cytotoxicity assay, MCF-7; assay type: cell-based; details: MCF-7 cell line
Experimental: as §1

[8] = test system: Hela (human cervical epitheloid carcinoma); assay: MTT cytotoxicity assay, Hela; assay type: cell-based; details: Hela cell line
Experimental: as §1

[9] = test system: P-388 murine leukemia cells; details: in vitro, previous studies; cited from earlier work

| Molecule | EC50 (μM) KB (KB (human cancer cell)) | IC50 [1] | IC50 (NADPH oxidase (NOX) [2]) | IC50 (NADPH oxidase (NOX) [3]) | EC50 (μM) KB-VIN [4] | ED50 (μg/mL) Daoy [5] | ED50 (μg/mL) Hep2 [6] | ED50 (μg/mL) MCF-7 [7] | ED50 (μg/mL) Hela [8] | EC50 (KB (human cancer cell)) | EC50 [4] | cytotoxicity against P-388 murine leukemia cells [9] |
| --- | --- | --- | --- | --- | --- | --- | --- | --- | --- | --- | --- | --- |
| methyl antcinate H [Compound I-18] | NA@20 | 2.5 µM | 18.1 ± 5.9 µM | 16 ± 8.1 µM | NA@20 | – | – | – | – | – | – | – |
| C=C(C)C#Cc1c(OC)cc(OC)c(OC)c1C [II-9, antrocamphin A] | – | 7.2 ± 1 µM | 15.1 ± 4.1 µM | 50.1 ± 3.3 µM | – | 5.9 µg/mL (≈ 24 µM) | 10.5 µg/mL (≈ 42.6 µM) | 3.4 µg/mL (≈ 13.8 µM) | 6.9 µg/mL (≈ 28 µM) | – | – | – |
| C=C(CC[C@@H](C)[C@H]1CC[C@H]2C3=C(C(=O)C[C@]12C)[C@@]1(C)CCC(=O)[C@@H](C)[C@@H]1CC3)C(C)C(=O)O (stereo partly drawn) [Compound I-15, antcin A] | – | 4.1 ± 0.5 µM | 29.2 ± 6.7 µM | 45.9 ± 7.9 µM | – | 13.2 µg/mL (≈ 29 µM) | — (ED50 > 20 μg/mL) | 13.3 µg/mL (≈ 29.3 µM) | — (ED50 > 20 μg/mL) | 4.9 µM | 10 µM | – |
| C=C(CC[C@@H](C)[C@H]1CC[C@H]2C3=C(C(=O)[C@H](O)[C@]12C)[C@@]1(C)CC[C@@H](O)[C@@H](C)[C@@H]1CC3=O)C(C)C(=O)O (stereo partly drawn) [zhankuic acid C] | – | – | – | – | – | – | – | – | – | – | – | significant cytotoxicity |
| C=C(CC[C@@H](C)[C@H]1CC[C@H]2C3=C(C(=O)C[C@]12C)[C@@]1(C)CCC(=O)[C@@H](C)[C@@H]1CC3=O)C(C)C(=O)O (stereo partly drawn) [zhankuic acid A] | – | – | – | – | – | – | – | – | – | – | – | significant cytotoxicity |
| C=C(CC[C@@H](C)[C@H]1CC[C@H]2C3=C(C(=O)[C@H](O)[C@]12C)[C@@]1(C)CC[C@@H](O)[C@@H](C)[C@@H]1CC3=O)C(C)C(=O)O (stereo partly drawn) [Compound I-13, zhankuic acid C] | – | 16.2 ± 0.9 µM | – | 40.3 ± 3.5 µM | – | – | – | – | – | 15.5 µM | 6.4 µM | – |
